Like-named read-outs stand apart in the source and are kept apart here.
Assays:
[1] = target: T1, peripheral site of AChE from bovine erythrocytes (Bos taurus, UniProt P23795); assay: biochemical; type: binding; settings: for inhibition at 0.3 µM: compound 0.3 micromolar (concentration of maximum reduction)
T1 construct: A solution of AChE from bovine erythrocytes; from tissue; host or cells: bovine erythrocytes
T1 sequence (P23795 31-614 isoform P23795-2 limits assumed): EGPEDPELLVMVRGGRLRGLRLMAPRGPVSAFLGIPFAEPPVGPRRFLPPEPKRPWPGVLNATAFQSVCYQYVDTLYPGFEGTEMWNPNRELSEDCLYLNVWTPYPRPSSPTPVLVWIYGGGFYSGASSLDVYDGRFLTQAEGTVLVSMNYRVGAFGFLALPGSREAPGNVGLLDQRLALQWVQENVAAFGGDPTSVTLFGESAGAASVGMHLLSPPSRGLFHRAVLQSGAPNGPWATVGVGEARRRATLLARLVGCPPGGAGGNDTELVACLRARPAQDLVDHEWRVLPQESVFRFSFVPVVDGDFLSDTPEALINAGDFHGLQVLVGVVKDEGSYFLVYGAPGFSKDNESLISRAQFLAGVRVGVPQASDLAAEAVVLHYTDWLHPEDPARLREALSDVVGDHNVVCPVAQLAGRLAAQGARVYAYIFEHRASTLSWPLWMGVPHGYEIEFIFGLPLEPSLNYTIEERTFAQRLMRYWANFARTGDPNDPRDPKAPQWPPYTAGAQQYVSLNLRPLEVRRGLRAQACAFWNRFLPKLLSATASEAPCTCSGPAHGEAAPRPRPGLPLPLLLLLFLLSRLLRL
Method: A competition test for the peripheral site of acetylcholinesterase was carried out with the compounds at concentrations of 0.3, 1 and 3 micromolar.
A solution of AChE from bovine erythrocytes at the concentration of 5 micromolar in Tris buffer 0.1 milimolar and pH 8 was used.

[2] = target: T2, purified AChE from Electrophorus electricus (Electrophorus electricus, UniProt O42275); assay: Inhibition of acetylcholinesterase (method of Rappaport); type: biochemical
T2 construct: using purified AChE from Electrophorus electricus; from tissue
T2 sequence (O42275 24-633): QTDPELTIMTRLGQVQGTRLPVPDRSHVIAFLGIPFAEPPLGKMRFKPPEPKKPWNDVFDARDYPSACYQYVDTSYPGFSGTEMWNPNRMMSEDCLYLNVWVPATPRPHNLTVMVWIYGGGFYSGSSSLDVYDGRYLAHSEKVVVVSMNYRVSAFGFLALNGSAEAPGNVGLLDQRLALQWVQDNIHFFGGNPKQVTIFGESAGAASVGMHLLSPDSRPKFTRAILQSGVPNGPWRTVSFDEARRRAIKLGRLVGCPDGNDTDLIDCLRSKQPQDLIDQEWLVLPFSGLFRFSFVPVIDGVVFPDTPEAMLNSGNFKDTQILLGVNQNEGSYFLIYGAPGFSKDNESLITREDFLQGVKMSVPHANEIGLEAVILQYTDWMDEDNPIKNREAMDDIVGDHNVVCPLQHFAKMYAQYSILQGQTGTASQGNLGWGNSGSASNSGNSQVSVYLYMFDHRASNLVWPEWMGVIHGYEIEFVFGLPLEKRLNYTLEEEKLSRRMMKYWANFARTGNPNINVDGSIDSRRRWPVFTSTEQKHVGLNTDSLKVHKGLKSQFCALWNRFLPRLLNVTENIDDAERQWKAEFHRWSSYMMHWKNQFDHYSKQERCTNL
Method: For this reason, it was considered interesting to evaluate the capacity to inhibit AChE of the compounds of the present invention. This evaluation was performed following the method of Rappaport (Clin. Chim. Acta 1959, 4, 227), using purified AChE from Electrophorus electricus and acetylcholine chloride (29.5 milimolar) as substrate. The reaction took place in a final volumen of 2.5 milliliters of an aqueous solution containing 0.78 units of AChE and m-nitrophenol at 1.9 milimolar to produce a yellow color, which is lost in function of the enzyme activity.
Curves of inhibition were made incubating with the compounds of the present invention for 30 minutes and a sample without any compound was prepared to determine the 100% of the enzymatic activity. After 30 minutes of incubation, the loss of yellow color was evaluated by measuring absorbance at 405 nanometers in a spectrophotometric microplate reader (iEMS Reader MF, Labsystems). The concentration of compound producing 50% inhibition of AChE activity (IC50) was calculated transforming the values of absorbance to enzymatic activity Rappaport units extrapolating from a calibration curve previously obtained.
The results of inhibition of AChE, expressed as the concentration which inhibits 50% of activity (IC50) for the compounds of the present invention, are the following: […]

[3] = test system: human neuroblastoma cell line SH-SYSY; assay: Neuroprotection against hydrogen peroxide-induced cell death (LDH release); type: cell-based; settings: for inhibition at 10 µM: read-out: Protection (%); for inhibition at 1 µM: compound 1 micromolar (concentration of maximum protection); for inhibition at 3 µM: compound 3 micromolar (concentration of maximum protection); for inhibition at 30 µM: compound 30 micromolar (concentration of maximum protection)
[4] = in vitro; settings: pig, PAMPA, pH 7.4
Method: (§1) The experiments were performed using two 96-well microplate in a sandwich assembly. The top microplate (Millipore, Ref MAIPS4510) is provided with 96 hydrophobic PVDF filters, where a solution of a lipid extract of pig brain (Avanti Polar Lipids) in dodecane is put down.
(§2) The bottom microplate has 96 tear-shaped wells (Millipore, Ref. MAMCS9610). The acceptor 96-well microplate was filled with 180 μL per well of a mixture of phosphate buffer saline pH 7.4 (PBS) and EtOH in proportion 90:10. The filter surface of the donor microplate was impregnated with 4 μL of a solution of lipid extract from pig brain in dodecane (20 mg mL^−1). Compounds were dissolved in PBS/EtOH (90:10) and then 180 μL were added to the donor microplate, which is carefully placed on the receiver plate. After 120 minutes of incubation at 25° C., plate donor is carefully separated and determined the concentration of the compounds in the acceptor plate by UV spectroscopy. This method measures the permeability, expressed as the rate of passage of a given barrier in 10^−6 centimeter per second (10^−6 cm s^−1). The results are expressed as the mean plus/minus the standard deviation of three independent assays, each containing four replicates of each tested compound.

[5] = PAMPA
Method: as §1, §2

[6] = test system: human neuroblastoma cell line SH-SYSY; assay: Neuroprotection against rotenone plus oligomycin A-induced cell death (LDH release); settings: rotenone (30 micromolar) plus oligomycin A (10 micromolar)
Method: With this goal in mind, the cytoprotective effect of the compounds was evaluated in human neuroblastoma cells, specifically the neuroprotective potential of these compounds against oxidative stress produced in two different models: with hydrogen peroxide as exogenous generator of free radicals, and with rotenone and oligomycin A, blockers of the mitochondrial respiratory chain, as described in J. Neurochem.
In the assays, SH-SYSY were sub-cultured in 48-well plates with a density of seed of 5×10^5 cells per well, or in 96-well plates with a density of 2×10^5 cells per well. In the cytotoxicity experiments, cells prepared in this way were treated with the compounds to test, in DMEM free of serum.
To study the cytoprotective action of different compounds against cell death induced by hydrogen peroxide 30 micromolar or by a combination of rotenone 30 micromolar with oligomycin A 10 micromolar, compounds were added to the medium and maintained there for 24 hours. Then, media were replaced by fresh media still containing the compound plus the cytotoxic agent, and were maintained there for an additional period of 24 hours. Cell viability was checked by measuring the activity of the enzyme LDH, as it was explained before, using the kit “Cytotoxicity Cell Death” (Roche-Boehringer Mannheim) following the instructions of the manufacturer. Total LDH activity was defined as the sum of intra plus extra LDH activities. Released LDH was defined as the percentage of extracellular compared with total LDH activity.
In all the pharmacological experiments a positive control was used as comparison and to evaluate the reliability of the method used.

[7] = read-out: Protection (%) (percentage of the reduction in propidium fluorescence)
[8] = oxygen peroxide (60 micromolar) stimulus, SH-SYSY, LDH
[9] = 30 minutes incubation, acetylcholine chloride 29.5 milimolar as substrate, read-out: AChE-I, IC50
[10] = compound 0.3 micromolar (concentration of maximum protection)
[11] = compound 3 micromolar (concentration of maximum reduction), propidium 20 micromolar, AChE 5 micromolar, read-out: Protection (%) (percentage of the reduction in propidium fluorescence)
[12] = propidium 20 micromolar, AChE 5 micromolar, read-out: Protection (%) (percentage of the reduction in propidium fluorescence)
[13] = oxygen peroxide (60 micromolar) stimulus, compound 10 micromolar (concentration of maximum protection), SH-SYSY, LDH
[14] = compound 3 micromolar (concentration of maximum protection)

## C=CC[N+](C)(C)c1ccc(CCC(=O)CCc2ccc([N+](C)(C)CC=C)cc2)cc1.[Br-].[Br-] [BW284c51, reference compound]
[1]; positive control at 1000 micromolar (1 milimolar), propidium 20 micromolar, AChE 5 micromolar
  Protection (%) (percentage of the reduction in propidium fluorescence): 24.5%

## CCCCCCOC(=O)C(CCC(=O)NCCC1CCN(Cc2ccccc2)CC1)NC(=O)OCc1ccccc1 (stereo not shown) [Example 1.1, n-hexyl 2-benzyloxycarbonylamino-4-[2-(1-benzylpiperidin-4-yl)-ethylcarbamoyl]-butyrate]
[2]
  IC50: 1.4 µM
[3]
  inhibition at 10 µM: 39.1%
[1]; [7]
  inhibition at 3 µM: 29.3%

## CCCCCCOC(=O)C(CCC(=O)NCCC1CCN(Cc2ccccc2)CC1)NC(=O)OC(C)(C)C (stereo not shown) [Example 1.2, n-hexyl 4-[2-(1-benzylpiperidin-4-yl)-ethylcarbamoyl]-2-tert-butoxycarbonylamino-butyrate]
[4]
  Papp at 120 min: 4.4 ± 0.1 ×10⁻⁶ cm/s
[5]
  Classification (CNS penetration): CNS+
[2]
  IC50: 5 µM
[3]; [8]
  inhibition at 1 µM: 24.9%
[1]; [7]
  inhibition at 1 µM: 43.6%

## CCCCCCOC(=O)C(CCC(=O)NCCC1CCN(Cc2ccccc2)CC1)NC(=O)c1ccccc1 (stereo not shown) [Example 1.3, n-hexyl 2-benzoylamino-4-[2-(1-benzylpiperidin-4-yl)-ethylcarbamoyl]-butyrate]
[2]; [9]
  IC50: 1.9 µM
[3]; [8]
  inhibition at 3 µM: 68.1%
[6]; [10]
  Protection (%): 47.9%
[1]; [11]
  inhibition at 3 µM: 37.3%

## CCCCCCOC(=O)C(CCC(=O)NCCC1CCN(Cc2ccccc2)CC1)NC(=O)c1cc2ccccc2s1 (stereo not shown) [Example 1.4, n-hexyl 2-[(benzo[b]tiofen-2-carbonyl)-amino]-4-[2-(1-benzyl-piperidin-4-yl)-ethylcarbamoyl]-butyrate]
[2]; read-out: AChE-I, IC50
  IC50: 2.5 µM
[3]; [8]
  inhibition at 1 µM: 28.7%
[1]; [11]
  inhibition at 3 µM: 39.7%

## CCCCCCOC(=O)C(CCC(=O)NCCC1CCN(Cc2ccccc2)CC1)NC(=O)Cc1cc2ccc(Cl)cc2s1 (stereo not shown) [Example 1.5, n-hexyl 4-[2-(1-benzyl-piperidin-4-yl)-ethylcarbamoyl]-2-[2-(6-chloro-benzo[b]thiophen-2-yl)-acetylamino]-butyrate]
[2]; [9]
  IC50: 2.3 µM
[3]; [8]
  inhibition at 3 µM: 32.5%
[1]; [11]
  inhibition at 3 µM: 23.4%

## CCCCCCOC(=O)C(CCC(=O)NCCC1CCN(Cc2ccccc2)CC1)NC(=O)c1cc2cccnc2s1 (stereo not shown) [Example 1.6, n-hexyl 4-[2-(1-benzyl-piperidin-4-yl)-ethylcarbamoyl]-2-[(thieno[2,3-b]piridin-2-carbonyl)-amino]-butyrate]
[4]
  Papp at 120 min: 3.2 ± 0.01 ×10⁻⁶ cm/s
[5]
  Classification (CNS penetration): CNS+
[2]; [9]
  IC50: 3.25 µM
[3]; [8]
  inhibition at 30 µM: 48.8%
[1]; [12]
  inhibition at 0.3 µM: 37.4%

## CCCCCCOC(=O)C(CCC(=O)NCCC1CCN(Cc2ccccc2)CC1)NC(=O)c1cc2ccsc2s1 (stereo not shown) [Example 1.7, n-hexyl 4-[2-(1-benzyl-piperidin-4-yl)-ethylcarbamoyl]-2-[(thieno[2,3-b]thiophen-2-carbonyl)-amino]-butyrate]
[2]; [9]
  IC50: 3.5 µM
[3]; [13]
  inhibition at 10 µM: 46.4%
[6]; [10]
  Protection (%): 46.1%
[1]; [12]
  inhibition at 0.3 µM: 42.2%

## CCCCCCOC(=O)C(CCC(=O)NCCC1CCN(Cc2ccccc2)CC1)NC(=O)c1cccs1 (stereo not shown) [Example 1.8, n-hexyl 4-[2-(1-benzyl-piperidin-4-yl)-ethylcarbamoyl]-2-[(thiophen-2-carbonyl)-amino]-butyrate]
[4]
  Papp at 120 min: 5.3 ± 0.01 ×10⁻⁶ cm/s
[5]
  Classification (CNS penetration): CNS+
[2]; [9]
  IC50: 3.5 µM
[3]; [13]
  inhibition at 10 µM: 73%
[6]; compound 0.1 micromolar (concentration of maximum protection)
  Protection (%): 48.9%
[1]; [11]
  inhibition at 3 µM: 15%

## CCCCCCOC(=O)C(CCC(=O)NCCC1CCN(Cc2ccccc2)CC1)NC(=O)c1cc(Br)cs1 (stereo not shown) [Example 1.9, n-hexyl 4-[2-(1-benzyl-piperidin-4-yl)-ethylcarbamoyl]-2-[(4-bromo-thiophen-2-carbonyl)-amino]-butyrate]
[2]; [9]
  IC50: 1.2 µM
[3]; [8]
  inhibition at 3 µM: 84.3%
[6]; [14]
  Protection (%): 35.9%
[1]; [12]
  inhibition at 0.3 µM: 11.3%

## Cc1c(C)c2c(c(C)c1O)CCC(C)(C(=O)O)O2 (stereo not shown) [Trolox, trolox, reference compound]
[3]; [8]
  inhibition at 30 µM: 57.7%
[6]; [14]
  Protection (%): 52.9%

Source: US20100305157A1 (priority 2007, published 2010)
